Results published in patent publication US9278915B2, “Agonists of GPR40” (CONNEXIOS LIFE SCIENCES PVT LTD, priority 2010, dated 2016).

Target: T1, hGPR40 (Homo sapiens, UniProt O14842)
T1 construct: expressed in transfected cells
Experiment: Calcium flux assay to detect GPR40 activation
Format: cell-based
Conditions: CHO-K cells stably expressing hGPR40; Fluo-4 NW; read for 4 min at 5 s intervals
Protocol: Biological Activity Calium Flux Assay to Detect GPR40 Activation: CHO-K cells stably expressing hGPR40 were selected in a media containing Neomycin/G418. The cells were plated at a concentration of 20,000 cells per well in black 96-well clear bottom tissue culture treated plates. The cells were cultured for 24 h at 37° C. in a humidified 5% CO2 air environment to allow for protein expression. The next day, after removal of media from wells, Fluo-4 NW (Invitrogen) is added at 100 ul/well and the cells were incubated for 30 min at 37° C. and for a further 30 min at RT. All test compounds were diluted to appropriate concentrations in HEPES buffer. Compounds were added to the cells and the wells were read in the BioTEK synergy reader and readings were taken for 4 min with an interval of 5 s.

T1 sequence (O14842 whole entry): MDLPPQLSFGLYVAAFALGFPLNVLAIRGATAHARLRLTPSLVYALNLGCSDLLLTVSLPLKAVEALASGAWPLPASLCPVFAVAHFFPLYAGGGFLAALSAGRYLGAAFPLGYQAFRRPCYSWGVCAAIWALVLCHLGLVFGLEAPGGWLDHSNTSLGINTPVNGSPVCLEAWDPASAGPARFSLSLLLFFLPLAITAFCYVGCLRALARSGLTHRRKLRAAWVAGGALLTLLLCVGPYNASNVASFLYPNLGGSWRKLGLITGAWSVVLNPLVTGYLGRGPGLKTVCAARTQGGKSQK

Compound	EC50 [nM]
N#CC(CC(=O)O)c1ccc(OCc2ccc(OC/C(=N\OC3CCCCC3)c3ccccc3)cc2)cc1 (centres unmarked) [Compound 111, 3-Cyano-3-(4-{[4-({(2Z)-2-[(cyclohexyloxy)imino]-2-phenylethyl}oxy)benzyl]oxy}phenyl)propanoic acid]	10 to 100
CO/N=C(/c1ccccc1)c1ccc(CNc2ccc(CCC(=O)O)cc2)cc1 [Compound 3, 3-[4-({4-[(E,Z)-(Methoxyimino)(phenyl)methyl]benzyl}amino)phenyl]propanoic acid]	> 100
CO/N=C(\COc1ccc(COc2ccc(/C=C/C(=O)O)c(-c3cc(C)on3)c2)cc1)c1ccccc1 [Compound 97, (2E,2Z)-3-{4-[(4-{[(2Z)-2-(Methoxyimino)-2-phenylethyl]oxy}benzyl)oxy]-2-(5-methyl-1,2-oxazol-3-yl)phenyl}prop-2-enoic acid]	> 100
CO/N=C(\COc1ccc(-c2ccc(CCC(=O)O)cc2)cc1)c1ccccc1 [Compound 115, 3-(4′-{[(2Z)-2-(Methoxyimino)-2-phenylethyl]oxy}biphenyl-4-yl)propanoic acid]	> 100
CON=C(COc1ccc(COc2ccc(C(C#N)CC(=O)O)cc2)cc1)c1ccc(C#N)cc1 (mixture of isomers) [Compound 49, Sodium 3-cyano-3-{4-[(4-{[(2E,2Z)-2-(4-cyanophenyl)-2-(methoxyimino)ethyl]oxy}benzyl)oxy]phenyl}propanoate]	< 10
CO/N=C(\COc1ccc(COc2ccc(C(C#N)CC(=O)O)cc2)cc1)c1ccccc1 (centres unmarked) [Compound 18, Sodium 3-cyano-3-{4-[(4-{[(2Z)-2-(methoxyimino)-2-phenylethyl]oxy}benzyl)oxy]phenyl}propanoate]	< 10
CC#CC(CC(=O)O)c1ccc(OCc2ccc(OC/C(=N\OC)c3ccccc3)cc2)cc1 (centres unmarked) [Compound 85, 3-{4-[(4-{[(2Z)-2-(Methoxyimino)-2-phenylethyl]oxy}benzyl)oxy]phenyl}hex-4-ynoic acid]	< 10
CO/N=C(\c1ccccc1)c1cccc(COc2ccc(CC(=O)O)cc2)c1 [Compound 19, [4-({3-[(E,Z)-(Methoxyimino)(phenyl)methyl]benzyl}oxy)phenyl]acetic acid]	> 100
CO/N=C(\COc1ccc(COc2ccc(C(C#N)CC(=O)O)cc2)cc1)c1ccc(F)cc1 (centres unmarked) [Compound 54, Sodium 3-cyano-3-{4-[(4-{[(2Z)-2-(4-fluorophenyl)-2-(methoxyimino)ethyl]oxy}benzyl)oxy]phenyl}propanoate]	10 to 100
CO/N=C(\COc1ccc(COc2ccc(CCC(=O)O)c(OCC3CC3)c2)cc1)c1ccccc1 [Compound 58, 3-{2-(Cyclopropylmethoxy)-4-[(4-{[(2Z)-2-(methoxyimino)-2-phenylethyl]oxy}benzyl)oxy]phenyl}propanoic acid]	> 100
CO/N=C(\COc1ccc(COc2ccc(CCC(=O)O)c(C)c2)cc1)c1ccccc1 [Compound 38]	> 100
CO/N=C(\COc1ccc(COc2ccc(C(CC(=O)O)c3ccccc3)cc2)cc1)c1ccccc1 (centres unmarked) [Compound 112, 3-{4-[(4-{[(2Z)-2-(Methoxyimino)-2-phenylethyl]oxy}benzyl)oxy]phenyl}-3-phenylpropanoic acid]	> 100
CO/N=C(/COc1ccc(COc2ccc(-c3c(C(=O)O)noc3C)cc2)cc1)c1ccccc1 [Compound 32, 4-{4-[(4-{[(2E,2Z)-2-(Methoxyimino)-2-phenylethyl]oxy}benzyl)oxy]phenyl}-5-methyl-1,2-oxazole-3-carboxylic acid]	> 100
CON=C(COc1ccc(COc2ccc(C(C)(C)CC(=O)O)cc2)cc1)c1ccccc1 (mixture of isomers) [Compound 61, 3-{4-[(4-{[(2E,2Z)-2-(Methoxyimino)-2-phenylethyl]oxy}benzyl)oxy]phenyl}-3-methylbutanoic acid]	> 100
CO/N=C(\COc1ccc(COc2ccc(CCC(=O)O)c(OCC#N)c2)cc1)c1ccccc1 [Compound 88, 3-{2-(Cyanomethoxy)-4-[(4-{[(2Z)-2-(methoxyimino)-2-phenylethyl]oxy}benzyl)oxy]phenyl}propanoic acid]	> 100
CO/N=C(/COc1ccc(COc2ccc(C(C#N)CC(=O)O)cc2)cc1)c1ccc(OC)cc1 (racemic) [Compound 25, 3-Cyano-3-{4-[(4-{[(2E,2Z)-2-(methoxyimino)-2-(4-methoxyphenyl)ethyl]oxy}benzyl)oxy]phenyl}propanoic acid]	< 10
CCOC(=O)CCc1ccc(OCc2ccc(OC/C(=N\OC)c3ccccc3)cc2)cc1OCC(=O)O [Compound 90, {2-(3-Ethoxy-3-oxopropyl)-5-[(4-{[(2E,2Z)-2-(methoxyimino)-2-phenylethyl]oxy}benzyl)oxy]phenoxy}acetic acid]	> 100
CO/N=C(\COc1ccc(CNc2ccc([C@@H]3C[C@H]3C(=O)O)cc2)cc1)c1ccccc1C [Compound 15, (1R,2R)-2-{4-[(4-{[(2Z)-2-(Methoxyimino)-2-(2-methylphenyl)ethyl]oxy}benzyl)amino]phenyl}cyclopropanecarboxylic acid]	10 to 100
CO/N=C(/COc1ccc(COc2ccc(C(C#N)CC(=O)O)cc2)cc1)C1CC1 (centres unmarked) [Compound 104, 3-Cyano-3-{4-[(4-{[(2E)-2-cyclopropyl-2-(methoxyimino)ethyl]oxy}benzyl)oxy]phenyl}propanoic acid]	> 100
CO/N=C(\COc1ccc(CNc2ccc(CCC(=O)O)cc2)cc1)c1ccccc1 [Compound 4, 3-{4-[(4-{[(2Z)-2-(Methoxyimino)-2-phenylethyl]oxy}benzyl)amino]phenyl}propanoic acid]	10 to 100
CO/N=C(\COc1ccc(COc2ccc(CCC(=O)O)cn2)cc1)c1ccccc1 [Compound 114, 3-{6-[(4-{[(2Z)-2-(Methoxyimino)-2-phenylethyl]oxy}benzyl)oxy]pyridin-3-yl}propanoic acid]	> 100
CO/N=C(\COc1ccc(COc2cc(F)c(CCC(=O)O)cc2F)cc1)c1ccccc1 [Compound 86, 3-{2,5-Difluoro-4-[(4-{[(22)-2-(methoxyimino)-2-phenylethyl]oxy}benzyl)oxy]phenyl}propanoic acid]	> 100
CN(C)CCO/N=C(/c1ccccc1)c1cccc(COc2ccc(CCC(=O)O)cc2)c1 [Compound 11, 3-[4-({3-[(E,Z)-{[2-(Dimethylamino)ethoxy]imino}(phenyl)methyl]benzyl}oxy)phenyl]propanoic acid]	> 100
CO/N=C(\COc1ccc(COc2ccc(CCC(=O)O)c(F)c2)cc1)c1ccc(OC)cc1 [Compound 40, 3-{2-Fluoro-4-[(4-{[(2Z)-2-(methoxyimino)-2-(4-methoxyphenyl)ethyl]oxy}benzyl)oxy]phenyl}propanoic acid]	< 10
CO/N=C(\COc1ccc(COc2ccc(C(CC(=O)O)c3ccon3)cc2)cc1)c1ccccc1 (centres unmarked) [Compound 29, Sodium 3-{4-[(4-{[(2Z)-2-(methoxyimino)-2-phenylethyl]oxy}benzyl)oxy]phenyl}-3-(1,2-oxazol-3-yl)propanoate]	< 10
O=C(O)CCc1ccc(OCc2ccc(OC/C(=N\OCc3ccccc3)c3ccccc3)cc2)cc1 [Compound 108, 3-(4-{[4-({(2E,2Z)-2-[(Benzyloxy)imino]-2-phenylethyl}oxy)benzyl]oxy}phenyl) propanoic acid]	10 to 100
